Experimental data published in ChEMBL document CHEMBL3430912, “GSK Tres Cantos Anti-Kinetoplastid Screening (TCAKS) Data”.

Columns and labels:
Trypanosoma cruzi [1] = experiment: GSK_TCAKS: pIC50 Trypanosoma cruzi viability assay using beta-GAL activity. This assay was run at single shot at 5uM compound concentration per well. The biological reagents consisted of NIH-3T3 host cells and trypomastigotes parasitic cells; both cell types were set to a 3.3 * 10^5 cells/mL dilution in assay DMEM by means of a CASY cell counter device using a 60um capillary. 6 uL of the mixture were dispensed per well (about 1 * 10^3 host-cells and 1 * 10^3 parasites) with a Multidrop Combi dispenser. […] In all wells, the percentage of DMSO never exceeded 0.5%. Plates incubated for four days at 37C, 5% CO2. The substrate used for the assay fluorescence intensity (FLINT) readout was resorufin-beta-D-galactopiranoside (Sigma-Aldrich) at 5uM per well. It was diluted in PBS supplemented with the soft detergent Igepal (Fluka).; format: functional, organism-based, Mus musculus; settings: Tulahuen, NIH3T3
Trypanosoma cruzi [2] = experiment: (§1) GSK_TCAKS: pIC50 Trypanosoma cruzi Imaging: Infected Cells. […] Cells were then washed once with PBS before infection. T. cruzi trypomastigotes, collected at days 5 to 8 after infection from LLC-MK2 parasite infected cultures, were allowed to swim out for 4h at 37C from a centrifuged pellet (2,500 rpm/10 min/room temperature). Trypomastigotes were then collected and counted in a CASY Cell Counter. Trypomastigotes, in supplemented DMEM, were added to H9c2 cultures in a multiplicity of infection of 1 and incubated for 18 h. Cells were washed once with PBS before incubation of the infected H9c2 monolayer with trypsin (Life-Technologies) to detach cells from the flask. Cells were counted in a CASY Cell Counter using a 150 um capillary and their density set at 5 * 10^4 cells per mL in supplemented assay DMEM. Infected H9c2 were dispensed into 384-well poly-lysine coated assay plates at 50uL per well using a Multidrop Combi dispenser. After seeding them, the plates were incubated at 37C, 5% CO2 for 72h. Cultures were then fixed and stained by addition of 50 uL of a solution containing 8% formaldehyde and 4 uM DRAQ5 DNA dye (BioStatus, UK) per well. […] Five images were collected per well for reliable statistical analysis. Automated image analysis was performed with a script developed on Acapella High Content Imaging and Analysis Software (PerkinElmer). Output: percentage of infected cells per well as a second infection marker.; format: functional, organism-based, Rattus norvegicus; settings: H9c2, 4 h
Trypanosoma cruzi [3] = experiment: GSK_TCAKS: pIC50 Trypanosoma cruzi Imaging: Amastigotes/Cell. […] Cells were then washed once with PBS before infection. T. cruzi trypomastigotes, collected at days 5 to 8 after infection from LLC-MK2 parasite infected cultures, were allowed to swim out for 4h at 37C from a centrifuged pellet (2,500 rpm/10 min/room temperature). Trypomastigotes were then collected and counted in a CASY Cell Counter. Trypomastigotes, in supplemented DMEM, were added to H9c2 cultures in a multiplicity of infection of 1 and incubated for 18 h. Cells were washed once with PBS before incubation of the infected H9c2 monolayer with trypsin (Life-Technologies) to detach cells from the flask. Cells were counted in a CASY Cell Counter using a 150 um capillary and their density set at 5 * 10^4 cells per mL in supplemented assay DMEM. Infected H9c2 were dispensed into 384-well poly-lysine coated assay plates at 50uL per well using a Multidrop Combi dispenser. After seeding them, the plates were incubated at 37C, 5% CO2 for 72h. Cultures were then fixed and stained by addition of 50 uL of a solution containing 8% formaldehyde and 4 uM DRAQ5 DNA dye (BioStatus, UK) per well. […] Five images were collected per well for reliable statistical analysis. Automated image analysis was performed with a script developed on Acapella High Content Imaging and Analysis Software (PerkinElmer). Output: number of amastigotes per cell as infection level measurement.; format: functional, organism-based, Rattus norvegicus; settings: H9c2, 4 h
Trypanosoma cruzi [4] = experiment: as §1, with “H2C9” for “Trypanosoma cruzi”, “H9c2 Host Cardiomyocytes.” for “Infected Cells.”, “Number” for “percentage”, “H9c2 Host Cardiomyocytes nuclei to determine drug-related cytotoxicity.” for “infected cells per well as a second infection marker.”; format: functional, organism-based, Rattus norvegicus; settings: H9c2, 4 h
Leishmania donovani [5] = experiment: GSK_TCAKS: pIC50 Leishmania donovani viability assay using fluorescence intensity. Assay plates (1536-well) were prepared by adding 30nL per well of compound. For single shot assay, the final compound concentration was 5uM. […] Briefly, eGFP LdBOB axenic amastigotes were harvested, fixed and counted in a CASY cell counter (Roche-Applied Science). A final concentration of 1.5 * 10^5 cells per well were prepared in amastigote media containing 500 U/mL penicillin/streptomycin (Invitrogen) and 6uL was dispensed to each experimental well using a Multidrop Combi dispenser (Thermo Scientific). 6uL of assay media was dispensed to control columns used as reference for 100% compound response. Following incubation for 72 h at 37C, 5% CO2, 2 uL of resazurin was added to each well at a final concentration of 0.5 mM in phosphate buffered saline (PBS) with IGEPAL (Sigma-Aldrich), 0.05% (v/v).; format: functional, organism-based
Leishmania donovani [6] = experiment: (§2) GSK_TCAKS: pIC50 Leishmania donovani Imaging: Infected Macrophages. Assay plates (384-well) were prepared by adding 250nL of compound to each well. For single shot assay, the final compound concentration was 5 uM. […] Automated image analysis was performed with a script developed on Acapella High Content Imaging and Analysis Software (PerkinElmer). Output: Percent of infected macrophage cells were reported for each well.; format: functional, organism-based, Homo sapiens; settings: THP-1
Leishmania donovani [7] = experiment: as §2, with “Amastigotes/Macrophages.” for “Infected Macrophages.”, “Average number” for “Percent”, “amastigotes per” for “infected”, “cell” for “cells”; format: functional, organism-based, Homo sapiens; settings: THP-1
Leishmania donovani [8] = experiment: as §2, with “THP-1 Host” for “Infected”, “THP-1 cell count” for “Percent of infected macrophage cells”; format: functional, organism-based, Homo sapiens
[9] = tested on: Trypanosoma brucei brucei; experiment: GSK_TCAKS: pIC50 Trypanosoma brucei viability assay using fluorescence intensity. Assay plates (1536-well) were prepared by dispensing 25nL of compound solution per well using an Echo acoustic dispenser (Labcyte).; format: functional, organism-based; settings: Lister 427, 2 h
[10] = tested on: Trypanosoma brucei brucei; experiment: GSK_TCAKS: pIC50 Trypanosoma brucei viability assay using luminiscence. Assay plates (1536-well) were prepared. T. brucei cultures were harvested and counted in a CASY cell counter. A parasite suspension was prepared at a final concentration of 5 * 10^4 cells/mL in complete HMI9 medium and 6uL was dispensed to all wells containing compounds using a Multidrop Combi dispenser. 6uL of HMI9 media with 0.4% DMSO were dispensed to control columns. Plates were incubated for 24 h at 37C, 5% CO2 then tempered for 10 min at room temperature. ATP content was quantified by adding 4 uL of CellTiter-Glo Reagent (Promega) according to the manufacturer's instructions. Luminescence was measured using a ViewLux.; format: functional, organism-based; settings: Lister 427, CASY
[11] = GSK_TCAKS: pIC50 HepG2 human cell line viability assay using luminiscence. […] Seeding density was checked to ensure that new mono-layers were not more than 50% confluent at the time of harvesting. Cell suspension was added to 500 mL of the same medium at a final density of 1.2 * 10^5 cells/mL. This cell suspension was dispensed (25 uL, 3000 cells per well) into 384-well clear-bottom plates using a Multidrop Combi dispenser. Prior to addition of the cell suspension, the screening compounds (250 nL) were pre-dispensed into the plates with an Echo liquid handler. Plates were incubated for 48 h at 37C, 5% CO2. After incubation, plates equilibrated at room temperature for 30 min before proceeding to develop the luminescent signal. The signal developer, CellTiter-Glo Reagent, was allowed to equilibrate at room temperature for 30 min and added to the plates (25uL per well) using a Multidrop Combi dispenser. Plates were left for 10 min at room temperature for stabilization and then read using a ViewLux.; format: toxicity, cell-based
NIH3T3 = experiment: GSK_TCAKS: pIC50 NIH 3T3 cell line viability assay using luminiscence. Tissue culture surface treated assay plates (1536-well) were used. […] The 100% cells survival control was determined exposing the host-cells to a 0.5% DMSO concentration, whereas the 100% toxicity control was achieved by seeding the cells in presence of Amphotericin B at 50uM. Plates were incubated for four days at 37C, 5% CO2. The assay readout was developed by addition of 5uL of CellTiter-Glo Reagent following the manufacturer's instructions. Luminiscence was measured using a ViewLux.; format: functional, cell-based; settings: Mus musculus, NIH3T3, 96 h
[12] = target: Sterol 14-alpha demethylase (Trypanosoma cruzi (strain CL Brener), UniProt Q7Z1V1); experiment: GSK_TCAKS: pIC50 CYP51 from Trypanosoma cruzi.; format: functional
Chain of Sterol 14-alpha demethylase (Q7Z1V1 whole entry): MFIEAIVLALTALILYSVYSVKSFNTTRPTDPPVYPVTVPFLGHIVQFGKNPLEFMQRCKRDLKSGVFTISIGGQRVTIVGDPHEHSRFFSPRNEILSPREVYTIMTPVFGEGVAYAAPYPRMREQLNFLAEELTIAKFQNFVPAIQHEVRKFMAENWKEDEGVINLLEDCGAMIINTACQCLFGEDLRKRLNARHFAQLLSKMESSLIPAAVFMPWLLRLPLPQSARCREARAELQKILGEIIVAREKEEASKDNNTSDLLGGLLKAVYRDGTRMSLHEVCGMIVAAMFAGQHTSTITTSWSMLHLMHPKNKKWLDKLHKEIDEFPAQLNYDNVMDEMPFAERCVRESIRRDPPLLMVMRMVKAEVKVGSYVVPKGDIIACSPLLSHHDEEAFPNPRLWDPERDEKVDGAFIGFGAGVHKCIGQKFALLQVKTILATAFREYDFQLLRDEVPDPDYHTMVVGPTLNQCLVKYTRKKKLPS

Row | SMILES | IC50 (Trypanosoma cruzi [1]) [µM] | IC50 (Trypanosoma cruzi [2]) [µM] | IC50 (Trypanosoma cruzi [3]) [µM] | IC50 (Trypanosoma cruzi [4]) [µM] | IC50 (Leishmania donovani [5]) [µM] | IC50 (Leishmania donovani [6]) [µM] | IC50 (Leishmania donovani [7]) [µM] | IC50 (Leishmania donovani [8]) [µM] | IC50 [9] [µM] | IC50 [10] [µM] | IC50 at 48 h [11] [µM] | IC50 (NIH3T3) [µM] | IC50 [12] [µM]
1 | CCOc1cnn(C)c(=O)c1Nc1ccc(C(=O)NCc2ccc(F)cc2)cc1 | 0.251 | 0.1 | 0.126 | > 50.1 | 31.6 | > 50.1 | > 50.1 | 31.6 | > 39.8 | > 39.8 | > 100 | > 50.1 | 3.98
2 | CN(Cc1nnnn1C1CCN(Cc2ccc(-n3ccnc3)cc2)CC1)c1ccc(F)cc1F | 0.316 | 0.316 | 0.316 | > 50.1 | > 50.1 | > 50.1 | 15.8 | > 50.1 | > 39.8 | > 39.8 | > 100 | 25.1 | 0.126
3 | CN(Cc1ccccc1)Cc1nnnn1C1CCN(Cc2ccc(-n3ccnc3)cc2)CC1 | 0.398 | 0.316 | 0.251 | > 50.1 | > 50.1 | > 50.1 | > 50.1 | 31.6 | > 39.8 | > 39.8 | > 100 | 3.98 | 0.0501
4 | O=C(NC1C(=O)N(c2ccccc2)C1c1cccnc1)c1ccc(Cl)s1 (centres undefined) | 0.0316 | 0.0501 | 0.0398 | > 50.1 | 1 | > 50.1 | 0.794 | > 50.1 | > 39.8 | > 39.8 | > 100 | > 50.1 | 0.2
5 | CCn1nccc1CN(C)C(=O)C=Cc1ccc(Cl)cc1 | 0.224 | 0.316 | 0.316 | > 50.1 | 15.8 | > 50.1 | > 50.1 | > 50.1 | 31.6 | > 39.8 | > 100 | > 50.1 | 0.316
6 | Cc1n[nH]c2c1C(c1ccc(OCc3ccccc3F)cc1)SCC(=O)N2 (centres undefined) | 2 | 3.16 | 0.794 | > 50.1 | 39.8 | > 50.1 | > 50.1 | > 50.1 | 25.1 | > 39.8 | > 100 | > 50.1 | > 100
7 | CCCN(Cc1ccc(OC)c(OC)c1)Cc1cc(=O)c2c(C)cc(C)cc2[nH]1 | 2 | 2 | 0.501 | > 50.1 | 20 | 25.1 | 20 | 5.01 | 25.1 | > 39.8 | 63.1 | 31.6 | > 100
8 | CCC1Oc2cc(S(=O)(=O)N(C)CC(=O)N3CCc4ccccc4C3)c(C)cc2NC1=O (centres undefined) | 0.2 | 0.251 | 0.251 | > 50.1 | > 50.1 | > 50.1 | 31.6 | > 50.1 | 25.1 | 31.6 | > 100 | > 50.1 | 0.794
